Assay results from paper PMC12090182, “Repurposing of the RIPK1-Selective Benzo[1,4]oxazepin-4-one Scaffold for the Development of a Type III LIMK1/2 Inhibitor” (ACS Chemical Biology, 2025).

Test system: MRC-9 cells
Experiment: Multiplex high-content viability assessment
Format: cell-based
Details: for Cell count normalized to cells treated with DMSO control / Cell count per well / Population Fragmented Nuclei (%) / Population Healthy Nuclei (%) / Population Pyknosed Nuclei (%) / Population apoptotic cell (%) / Population cell that influence microtubule strucutre (%) / Population with increased mitochondrial mass (%) / Population with membrane disruption (%): human fibroblast
Procedure: To assess the influence on cell health, a high-content screening in living cells called the multiplex high-content assay, as described previously by Tjaden et al., was performed.[38] In brief, HEK293T (ATCC CRL-1573) and U2OS (ATCCHTB-96) were cultured in DMEM plus L-glutamine (high glucose) supplemented by 10% FBS (Gibco) and penicillin/streptomycin (Gibco). MRC-9 fibroblasts ([…]) were cultured in EMEM plus L-glutamine supplemented by 10% FBS (Gibco) and penicillin/streptomycin (Gibco). Cells were seeded at a density of 1250 cells per well in a 384-well plate in a culture medium (cell culture microplate, PS, f-bottom, μClear, 781091, Greiner), with a volume of 50 μL per well. All outer wells were filled with 100 μL of PBS buffer (Gibco). […] The cell shape and fluorescence were measured before treatment and 12, 24, and 48 h after compound treatment using the CQ1 high-content confocal microscope (Yokogawa, Musashino, Japan). […] The compounds were tested at 1 and 10 μM, respectively. Acquired images of the cells were processed using Yokogawa CellPathfinder software (v3.04.02.02). […] Results were normalized to cells exposed to 0.1% DMSO. All compounds were tested in biological duplicates, and SEM (standard error of mean) was calculated of biological duplicates.

SMILES: CN1C(=O)[C@@H](N2CCc3c(C(N)=O)nn(Cc4ccccc4)c3C2=O)COc2ccccc21 [Compound 11]
- Cell count normalized to cells treated with DMSO control (1 µM, 0 h, replicate 1): 1.108
- Cell count per well (1 µM, 0 h, replicate 1): 166
- Population Fragmented Nuclei (%) (1 µM, 0 h, replicate 1): 16.15%
- Population Healthy Nuclei (%) (1 µM, 0 h, replicate 1): 68.94%
- Population Pyknosed Nuclei (%) (1 µM, 0 h, replicate 1): 14.91%
- Population apoptotic cell (%) (1 µM, 0 h, replicate 1): 29.17%
- Population cell that influence microtubule strucutre (%) (1 µM, 0 h, replicate 1): 21.62%
- Population with increased mitochondrial mass (%) (1 µM, 0 h, replicate 1): 7.21%
- Population with membrane disruption (%) (1 µM, 0 h, replicate 1): 0.00%
- Cell count normalized to cells treated with DMSO control (1 µM, 0 h, replicate 2): 0.9027
- Cell count per well (1 µM, 0 h, replicate 2): 161
- Population Fragmented Nuclei (%) (1 µM, 0 h, replicate 2): 20.65%
- Population Healthy Nuclei (%) (1 µM, 0 h, replicate 2): 50.97%
- Population Pyknosed Nuclei (%) (1 µM, 0 h, replicate 2): 28.39%
- Population apoptotic cell (%) (1 µM, 0 h, replicate 2): 29.55%
- Population cell that influence microtubule strucutre (%) (1 µM, 0 h, replicate 2): 43.04%
- Population with increased mitochondrial mass (%) (1 µM, 0 h, replicate 2): 7.59%
- Population with membrane disruption (%) (1 µM, 0 h, replicate 2): 5.06%
- Cell count normalized to cells treated with DMSO control (1 µM, 12 h, replicate 1): 1.109
- Cell count per well (1 µM, 12 h, replicate 1): 167
- Population Fragmented Nuclei (%) (1 µM, 12 h, replicate 1): 8.64%
- Population Healthy Nuclei (%) (1 µM, 12 h, replicate 1): 75.31%
- Population Pyknosed Nuclei (%) (1 µM, 12 h, replicate 1): 16.05%
- Population apoptotic cell (%) (1 µM, 12 h, replicate 1): 34.62%
- Population cell that influence microtubule strucutre (%) (1 µM, 12 h, replicate 1): 20.49%
- Population with increased mitochondrial mass (%) (1 µM, 12 h, replicate 1): 3.28%
- Population with membrane disruption (%) (1 µM, 12 h, replicate 1): 0.82%
- Cell count normalized to cells treated with DMSO control (1 µM, 12 h, replicate 2): 0.8825
- Cell count per well (1 µM, 12 h, replicate 2): 147
- Population Fragmented Nuclei (%) (1 µM, 12 h, replicate 2): 22.70%
- Population Healthy Nuclei (%) (1 µM, 12 h, replicate 2): 46.81%
- Population Pyknosed Nuclei (%) (1 µM, 12 h, replicate 2): 30.50%
- Population apoptotic cell (%) (1 µM, 12 h, replicate 2): 34.88%
- Population cell that influence microtubule strucutre (%) (1 µM, 12 h, replicate 2): 56.06%
- Population with increased mitochondrial mass (%) (1 µM, 12 h, replicate 2): 10.61%
- Population with membrane disruption (%) (1 µM, 12 h, replicate 2): 4.55%
- Cell count normalized to cells treated with DMSO control (1 µM, 24 h, replicate 1): 1.1208
- Cell count per well (1 µM, 24 h, replicate 1): 169
- Population Fragmented Nuclei (%) (1 µM, 24 h, replicate 1): 16.36%
- Population Healthy Nuclei (%) (1 µM, 24 h, replicate 1): 70.30%
- Population Pyknosed Nuclei (%) (1 µM, 24 h, replicate 1): 13.33%
- Population apoptotic cell (%) (1 µM, 24 h, replicate 1): 45.45%
- Population cell that influence microtubule strucutre (%) (1 µM, 24 h, replicate 1): 18.10%
- Population with increased mitochondrial mass (%) (1 µM, 24 h, replicate 1): 3.45%
- Population with membrane disruption (%) (1 µM, 24 h, replicate 1): 1.72%
- Cell count normalized to cells treated with DMSO control (1 µM, 24 h, replicate 2): 0.8977
- Cell count per well (1 µM, 24 h, replicate 2): 148
- Population Fragmented Nuclei (%) (1 µM, 24 h, replicate 2): 25.34%
- Population Healthy Nuclei (%) (1 µM, 24 h, replicate 2): 47.26%
- Population Pyknosed Nuclei (%) (1 µM, 24 h, replicate 2): 27.40%
- Population apoptotic cell (%) (1 µM, 24 h, replicate 2): 50.00%
- Population cell that influence microtubule strucutre (%) (1 µM, 24 h, replicate 2): 57.97%
- Population with increased mitochondrial mass (%) (1 µM, 24 h, replicate 2): 11.59%
- Population with membrane disruption (%) (1 µM, 24 h, replicate 2): 5.80%
- Cell count normalized to cells treated with DMSO control (1 µM, 48 h, replicate 1): 1.035
- Cell count per well (1 µM, 48 h, replicate 1): 157
- Population Fragmented Nuclei (%) (1 µM, 48 h, replicate 1): 12.50%
- Population Healthy Nuclei (%) (1 µM, 48 h, replicate 1): 75.00%
- Population Pyknosed Nuclei (%) (1 µM, 48 h, replicate 1): 12.50%
- Population apoptotic cell (%) (1 µM, 48 h, replicate 1): 68.42%
- Population cell that influence microtubule strucutre (%) (1 µM, 48 h, replicate 1): 16.67%
- Population with increased mitochondrial mass (%) (1 µM, 48 h, replicate 1): 3.51%
- Population with membrane disruption (%) (1 µM, 48 h, replicate 1): 0.88%
- Cell count normalized to cells treated with DMSO control (1 µM, 48 h, replicate 2): 0.8596
- Cell count per well (1 µM, 48 h, replicate 2): 140
- Population Fragmented Nuclei (%) (1 µM, 48 h, replicate 2): 27.61%
- Population Healthy Nuclei (%) (1 µM, 48 h, replicate 2): 55.22%
- Population Pyknosed Nuclei (%) (1 µM, 48 h, replicate 2): 17.16%
- Population apoptotic cell (%) (1 µM, 48 h, replicate 2): 39.13%
- Population cell that influence microtubule strucutre (%) (1 µM, 48 h, replicate 2): 47.30%
- Population with increased mitochondrial mass (%) (1 µM, 48 h, replicate 2): 9.46%
- Population with membrane disruption (%) (1 µM, 48 h, replicate 2): 2.70%
- cytotoxicity (1 μM, MRC-9): no cytotoxicity
- Cell count normalized to cells treated with DMSO control (10 µM, 0 h, replicate 1): 0.9342
- Cell count per well (10 µM, 0 h, replicate 1): 140
- Population Fragmented Nuclei (%) (10 µM, 0 h, replicate 1): 19.23%
- Population Healthy Nuclei (%) (10 µM, 0 h, replicate 1): 57.69%
- Population Pyknosed Nuclei (%) (10 µM, 0 h, replicate 1): 23.08%
- Population apoptotic cell (%) (10 µM, 0 h, replicate 1): 33.33%
- Population cell that influence microtubule strucutre (%) (10 µM, 0 h, replicate 1): 24.00%
- Population with increased mitochondrial mass (%) (10 µM, 0 h, replicate 1): 6.67%
- Population with membrane disruption (%) (10 µM, 0 h, replicate 1): 1.33%
- Cell count normalized to cells treated with DMSO control (10 µM, 0 h, replicate 2): 0.8634
- Cell count per well (10 µM, 0 h, replicate 2): 154
- Population Fragmented Nuclei (%) (10 µM, 0 h, replicate 2): 23.88%
- Population Healthy Nuclei (%) (10 µM, 0 h, replicate 2): 43.28%
- Population Pyknosed Nuclei (%) (10 µM, 0 h, replicate 2): 32.84%
- Population apoptotic cell (%) (10 µM, 0 h, replicate 2): 40.91%
- Population cell that influence microtubule strucutre (%) (10 µM, 0 h, replicate 2): 39.66%
- Population with increased mitochondrial mass (%) (10 µM, 0 h, replicate 2): 15.52%
- Population with membrane disruption (%) (10 µM, 0 h, replicate 2): 8.62%
- Cell count normalized to cells treated with DMSO control (10 µM, 12 h, replicate 1): 0.8966
- Cell count per well (10 µM, 12 h, replicate 1): 135
- Population Fragmented Nuclei (%) (10 µM, 12 h, replicate 1): 18.46%
- Population Healthy Nuclei (%) (10 µM, 12 h, replicate 1): 53.08%
- Population Pyknosed Nuclei (%) (10 µM, 12 h, replicate 1): 28.46%
- Population apoptotic cell (%) (10 µM, 12 h, replicate 1): 67.57%
- Population cell that influence microtubule strucutre (%) (10 µM, 12 h, replicate 1): 69.57%
- Population with increased mitochondrial mass (%) (10 µM, 12 h, replicate 1): 15.94%
- Population with membrane disruption (%) (10 µM, 12 h, replicate 1): 1.45%
- Cell count normalized to cells treated with DMSO control (10 µM, 12 h, replicate 2): 0.8165
- Cell count per well (10 µM, 12 h, replicate 2): 136
- Population Fragmented Nuclei (%) (10 µM, 12 h, replicate 2): 28.57%
- Population Healthy Nuclei (%) (10 µM, 12 h, replicate 2): 55.46%
- Population Pyknosed Nuclei (%) (10 µM, 12 h, replicate 2): 15.97%
- Population apoptotic cell (%) (10 µM, 12 h, replicate 2): 47.37%
- Population cell that influence microtubule strucutre (%) (10 µM, 12 h, replicate 2): 83.33%
- Population with increased mitochondrial mass (%) (10 µM, 12 h, replicate 2): 30.30%
- Population with membrane disruption (%) (10 µM, 12 h, replicate 2): 7.58%
- Cell count normalized to cells treated with DMSO control (10 µM, 24 h, replicate 1): 0.8754
- Cell count per well (10 µM, 24 h, replicate 1): 132
- Population Fragmented Nuclei (%) (10 µM, 24 h, replicate 1): 17.21%
- Population Healthy Nuclei (%) (10 µM, 24 h, replicate 1): 55.74%
- Population Pyknosed Nuclei (%) (10 µM, 24 h, replicate 1): 27.05%
- Population apoptotic cell (%) (10 µM, 24 h, replicate 1): 60.61%
- Population cell that influence microtubule strucutre (%) (10 µM, 24 h, replicate 1): 72.06%
- Population with increased mitochondrial mass (%) (10 µM, 24 h, replicate 1): 17.65%
- Population with membrane disruption (%) (10 µM, 24 h, replicate 1): 1.47%
- Cell count normalized to cells treated with DMSO control (10 µM, 24 h, replicate 2): 0.8068
- Cell count per well (10 µM, 24 h, replicate 2): 133
- Population Fragmented Nuclei (%) (10 µM, 24 h, replicate 2): 30.89%
- Population Healthy Nuclei (%) (10 µM, 24 h, replicate 2): 56.10%
- Population Pyknosed Nuclei (%) (10 µM, 24 h, replicate 2): 13.01%
- Population apoptotic cell (%) (10 µM, 24 h, replicate 2): 56.25%
- Population cell that influence microtubule strucutre (%) (10 µM, 24 h, replicate 2): 65.22%
- Population with increased mitochondrial mass (%) (10 µM, 24 h, replicate 2): 20.29%
- Population with membrane disruption (%) (10 µM, 24 h, replicate 2): 5.80%
- Cell count normalized to cells treated with DMSO control (10 µM, 48 h, replicate 1): 0.8898
- Cell count per well (10 µM, 48 h, replicate 1): 135
- Population Fragmented Nuclei (%) (10 µM, 48 h, replicate 1): 23.81%
- Population Healthy Nuclei (%) (10 µM, 48 h, replicate 1): 54.76%
- Population Pyknosed Nuclei (%) (10 µM, 48 h, replicate 1): 21.43%
- Population apoptotic cell (%) (10 µM, 48 h, replicate 1): 85.19%
- Population cell that influence microtubule strucutre (%) (10 µM, 48 h, replicate 1): 56.52%
- Population with increased mitochondrial mass (%) (10 µM, 48 h, replicate 1): 14.49%
- Population with membrane disruption (%) (10 µM, 48 h, replicate 1): 0.00%
- Cell count normalized to cells treated with DMSO control (10 µM, 48 h, replicate 2): 0.8904
- Cell count per well (10 µM, 48 h, replicate 2): 145
- Population Fragmented Nuclei (%) (10 µM, 48 h, replicate 2): 38.30%
- Population Healthy Nuclei (%) (10 µM, 48 h, replicate 2): 58.16%
- Population Pyknosed Nuclei (%) (10 µM, 48 h, replicate 2): 3.55%
- Population apoptotic cell (%) (10 µM, 48 h, replicate 2): 60.00%
- Population cell that influence microtubule strucutre (%) (10 µM, 48 h, replicate 2): 71.95%
- Population with increased mitochondrial mass (%) (10 µM, 48 h, replicate 2): 18.29%
- Population with membrane disruption (%) (10 µM, 48 h, replicate 2): 3.66%
